The source of these data is patent US6426229B1, “Chelating agent and detergent comprising the same” (Mitsubishi Rayon Co., Ltd., priority 1995, dated 2002).

SMILES strings stand for the structures.

One series in a line: Biodegradability, 301C Modified MITI Test (1) (OECD guideline).
Details: not given
`O=C(O)CN[C@@H](CC(=O)O)C(=O)O` [S-ASMA, (S)-aspartic acid-N-monoacetic acid]: the “biodegradability in 301C Modified MITI Test” value is reported as “completely converted to inorganic materials in a short time”.
Still for that read-out and setting: the value for `CN(CC(=O)O)CC(=O)O` [MIDA, N-methyliminodiacetic acid] was “completely decomposed to inorganic materials in a short time”; that for `O=C(O)CCN[C@@H](CC(=O)O)C(=O)O` [S-ASMP, (S)-aspartic acid-N-monopropionic acid] was “completely converted to inorganic materials in a short time”.

The nature of the next series: Storage of aqueous solution or slurry for 60 days: HPLC analysis of components and appearance. The series is classed as physicochemical. The following applies: keeping temperature 50° C. Here is the method: (§1) This aqueous solution was kept at 50° C. for 60 days, and, then, the components were analyzed by HPLC and, simultaneously, the appearance of the solution was observed.
as §1
This aqueous solution was kept at 50° C. for 60 days. Then, the components were analyzed by HPLC and, simultaneously, the appearance of the solution was observed.
For the compound `O=C([O-])CC(NCCCNC(CC(=O)[O-])C(=O)[O-])C(=O)[O-].[Na+].[Na+].[Na+].[Na+]` (centres unmarked) [compound 45, tetrasodium 1,3-propanediamine-N,N′-disuccinate], the “Appearance after kept for 60 days” value is on record as “Light yellow transparent aqueous solution” and the “Content of the compound of the formula [I] in aqueous solution after kept for 60 days” value (“Content of the compound of the formula” for short) is on record as 33.3 wt. %.
`O=C([O-])CN(CCS(=O)(=O)[O-])CC(=O)[O-].[Na+].[Na+].[Na+]` [compound 40, trisodium salt of taurine-N,N-diacetic acid]: the “Appearance after kept for 60 days” value was “Brown slurry” and the “Content of the compound of the formula” value is reported as 29.5 wt. %.
The corresponding values for `O=C([O-])C[C@H](NCCN[C@@H](CC(=O)[O-])C(=O)[O-])C(=O)[O-].[Fe+3].[NH4+]` [compound 49, iron ammonium (S,S)-ethylenediamine-N,N′-disuccinate] are “Blackish brown aqueous solution” and 29.9 wt. %.
For `O=C([O-])C[C@H](NCCN[C@@H](CC(=O)[O-])C(=O)[O-])C(=O)[O-].[Na+].[Na+].[Na+].[Na+]` [Example 113, tetrasodium (S,S)-ethylenediamine-N,N′-disuccinate] the same measures were “Light yellow transparent aqueous solution” and 35.6 wt. %.
`O=C([O-])CN[C@@H](CC(=O)[O-])C(=O)[O-].[Na+].[Na+].[Na+]` [Example 85, trisodium salt of (S)-aspartic acid-N-monoacetic acid]: the “Appearance after kept for 60 days” value is on record as “Light yellow transparent aqueous solution” and the “Content of the compound of the formula” value is 35.4 wt. %.
For the compound `O=C([O-])CC(NCCNC(CC(=O)[O-])C(=O)[O-])C(=O)[O-].[Na+].[Na+].[Na+].[Na+]` (centres unmarked) [compound 43, tetrasodium ethylenediamine-N,N′-disuccinate], the “Appearance after kept for 60 days” value is on record as “Light yellow transparent aqueous solution” and the “Content of the compound of the formula” value is on record as 35.7 wt. %.
The corresponding values for `O=C([O-])CN(CC(=O)[O-])c1ccccc1C(=O)[O-].[Na+].[Na+].[Na+]` [compound 39, trisodium salt of anthranilic acid-N,N-diacetic acid] are “Brown aqueous solution” and 31.8 wt. %.
Turning to `CN(CC(=O)[O-])CC(=O)[O-].[Na+].[Na+]` [Example 101, disodium N-methyliminodiacetate], the “Appearance after kept for 60 days” value is reported as “Light yellow transparent aqueous solution” and the “Content of the compound of the formula” value came out at 36.6 wt. %.
The corresponding values for `O=C([O-])CN(CCS(=O)(=O)[O-])CC(=O)[O-].[Na+].[Na+].[Na+]` [compound 37, trisodium salt of taurine-N,N-diacetic acid] are “Brown aqueous solution” and 30.4 wt. %.
The corresponding values for `O=C([O-])CN[C@@H](CC(=O)[O-])C(=O)[O-].[Na+].[Na+].[Na+]` [compound 33, trisodium salt of (S)-aspartic acid-N-monoacetic acid] are “Brown slurry” and 30.5 wt. %.
For `C[C@@H](C(=O)[O-])N(CC(=O)[O-])CC(=O)[O-].[Na+].[Na+].[Na+]` [Example 88, trisodium salt of (S)-α-alanine-N,N-diacetic acid] the same measures were “Light yellow transparent aqueous solution” and 36.5 wt. %.
For `O=C([O-])C[C@H](NCCN[C@@H](CC(=O)[O-])C(=O)[O-])C(=O)[O-].[Na+].[Na+].[Na+].[Na+]` [compound 44, tetrasodium (S,S)-ethylenediamine-N,N′-disuccinate], the “Appearance after kept for 60 days” value was “Light yellow transparent aqueous solution” and the “Content of the compound of the formula” value is 34.4 wt. %.
For `O=C([O-])CN[C@@H](CC(=O)[O-])C(=O)[O-].[Na+].[Na+].[Na+]` [compound 29, trisodium salt of (S)-aspartic acid-N-monoacetic acid] the same measures were “Brown aqueous solution” and 31.1 wt. %.
For `O=C([O-])CC(NCCNC(CC(=O)[O-])C(=O)[O-])C(=O)[O-].[Na+].[Na+].[Na+].[Na+]` (centres unmarked) [Example 112, tetrasodium ethylenediamine-N,N′-disuccinate], the “Appearance after kept for 60 days” value is reported as “Light yellow transparent aqueous solution” and the “Content of the compound of the formula” value was found to be 36.4 wt. %.

Assay in the next series: not given
As to conditions: reported value; cited from earlier work.
Regarding `O=C(O)CN(CCS(=O)(=O)O)CC(=O)O` [TUDA, taurine-N,N-diacetic acid], the “chelate stability constant for calcium” value was 4.2.
As to `CN(CC(=O)O)CC(=O)O` [MIDA, N-methyliminodiacetic acid], the “chelate stability constant for calcium” value is 3.7.
As to `O=C(O)C[C@@H](C(=O)O)N(CC(=O)O)CC(=O)O` [S-ASDA, (S)-aspartic acid-N,N-diacetic acid], the “chelate stability constant for calcium” value is 5.8.
Take `O=C(O)CN(CC(=O)O)CC(=O)O` [NTA, nitrilotriacetic acid, reference compound]: the “chelate stability constant for calcium” value is on record as 6.4.
